SMILES strings stand for the structures.

Data set [1] concerns BMPS. In words: Resazurin reduction cytotoxicity assay of BMPS after rotenone and MPP+ treatment. Format: cell-based, human. Particulars: 24 h exposure. The protocol:
DMSO was used as vehicle control. MPP+ working solutions were prepared in differentiation medium from 30 mM stocks to reach final concentrations of 10, 50, 100, 500, 1,000, 5,000 and 10,000 μM. Four independent experiments in 3 replicates were performed for each experimental condition (control and toxicant exposure for the different time points). […] Resazurin (7-Hydroxy-3H-phenoxazin-3-one 10-oxide) is a blue dye that is reduced into red fluorescent resorufin by redox reactions in viable cells. 100 μl Resazurin (2 mg/ml stock) were added directly to the 6 well plates (2 ml/well). Plates were incubated for 3 h at 37° C., 5% CO2. Subsequently, 50 μl of medium were transferred from each well in triplicates to a 96-well plate and fluorescence was measured at 530 nm/590 nm (excitation/emission) using a multi-well fluorometric reader CytoFluor series 4000 (PerSeptive Biosystems, Inc). Data were presented as mean±SD. Statistical analysis was performed using Dunnett's test.

For data set [2], the system named is dopaminergic neurons. Particulars: for Alterations in other neurofilament 200-positive neurons: cytotoxic concentrations: 10 μM rotenone; for General cytotoxicity and effect on other neuronal types at higher concentrations: up to 50 μM rotenone, up to 5000 μM MPP+. The protocol:
Initially, cytotoxicity experiments were performed to estimate sub-cytotoxic concentrations of these two compounds affecting only dopaminergic neurons (FIGS. 4A and 4C). […] Reactive oxygen species (ROS) were measured in the cellular medium using the OxiSelect™ In Vitro ROS/RNS Assay Kit (Cellbiolabs, San Diego, Calif.) as an indication of oxidative stress. […] Real time RT-PCR was performed in order to determine effects of both chemicals on genes related to PD, mitochondrial dysfunction and oxidative stress.
BMPS aggregates were collected at 2, 4 and 8 weeks. BMPS were fixed in 4% paraformaldehyde for 1 hour, washed 3 times in PBS, then incubated for 1 hour in blocking solution consisting of 5% normal goat serum (NGS) in PBS with 0.4% TritonX (Sigma). BMPS were then incubated at 4° C. for 48 hours with a combination of primary antibodies (Table 2) diluted in PBS containing 3% NGS and 0.1% TritonX. BMPS were washed in PBS 3 times after which they were incubated with the appropriate fluorophore-tagged secondary antibody for 1 hour in PBS with 3% NGS at room temperature. Double immunostaining was visualized using the proper combination of secondary antibodies (e.g., goat anti-rabbit secondary antibody conjugated with Alexa 594 and goat anti-mouse secondary antibody conjugated with Alexa 488 (Molecular Probes). Nuclei were counterstained with DRAQ5 dye (Cell Signaling; 1:5000 in 1×PBS) or NucRed Live (Molecular Probes) for 15 minutes before mounted on slides with coverslips and Prolong Gold antifade reagent (Molecular Probes); BMPS used as negative controls for immunostaining were processed omitting the primary antibody. Images were taken using a Zeiss UV-LSM 510 confocal microscope. The experiments were performed in duplicates; at least three different fields of view were analyzed for each combination of antibodies. 3D reconstruction was done using Imaris 7.6.4 software for scientific imaging.

Data set [3] has as its system Reactive oxygen species (ROS). In words: OxiSelect In Vitro ROS/RNS Assay in cellular medium of BMPS. Format: cell-based, human. Particulars: 5 μM rotenone, 1000 μM MPP+. The text has this:
This is a fluorescence-based assay measuring the presence of total free radicals within a sample and was used according to the manufacturer's protocol. The quenched fluorogenic dye dichlorodihydrofluorescin-DiOxyQ (DCFH-DiOxyQ) which is similar to the popular 2′,7′-dichlorodihydrofluorescein diacetate (DCFH-DA) is first primed with a quench removal reagent. The resulted highly reactive non-fluorescent DCFH can react with present ROS species in the cell supernatant and is then oxidized to the highly fluorescent DCF (2′,7′-dichlorodihydroxyfluorescein). At every time point, 50 μl of the cell supernatant was added to a 96-well plate in triplicates and was mixed and incubated with the DCFH-DiOxyQ for 45 minutes. The fluorescence intensity was measured with a fluorescence microplate reader at 480 nm/530 nm (excitation/emission) and was proportional to the total ROS/RNS levels within the sample.

The subject of data set [4] is Tyrosine hydroxylase (TH) mRNA. In words: Real time RT-PCR of BMPS after toxicant exposure: TH. Format: cell-based, human. Particulars: for TH mRNA expression decreased by: 24 hours, 5 μM rotenone, 1000 E M MPP+; for TH gene expression compared to controls: BMPS treated with rotenone or MPP+. The protocol:
(§1) Total RNA was extracted from aggregates every week up to 8 weeks of differentiation using Tripure (Roche, Switzerland) according to Chomczynski and Sacchi (1987). The same RNA extraction method was used to isolate RNA after toxicant treatment. RNA quantity and purity was determined using NanoDrop 2000c (Thermo Scientific). One microgram of RNA was reverse-transcribed using the M-MI V Promega Reverse Transcriptase (Promega) according to the manufacturer's recommendations. For miRNA reverse-transcription 60 ng of RNA were reverse transcribed using TaqMan microRNA Reverse transcription kit in combination with miRNA specific stem-loop primers, which are a part of TaqMAn microRNA expression assay. Upto eight stem-loop primers were multiplexed in one reaction.
(§2) The expression of genes was evaluated using specific Taqman® gene expression assays (Life Technologies). miRNA expression was analyzed using TaqMAn microRNA expression assay in combination with TaqMan miRNA Reverse Transcription kit using protocol described in [77]. […] Real time RT-PCRs were performed using a 7500 Fast Real Time system machine (Applied Biosystems). Fold changes were calculated using the 2(−ΔΔCt) method. β-actin and 18s were used as a housekeeping genes for mRNA and RNU44 for miRNA. There were no statistically significant differences in expression for β-actin, 18s, and RNU44. Data were presented as mean±SD, normalized to housekeeping genes and week 0.
On the technique in general: Real-time PCR tracks product formation cycle by cycle.

In data set [5] the test system is T-box brain 1 (TBR1). In words: Real time RT-PCR of BMPS after toxicant exposure: TBR1. Particulars: for reduction of TBR1 gene expression: 24 hours exposure, sub-cytotoxic concentrations; for TBR1 gene expression: non-cytotoxic concentrations. Format: cell-based, human. The protocol: as §1, §2
Data set [6] deals with Alpha-synuclein (SNCA). In words: Real time RT-PCR of BMPS after toxicant exposure: SNCA. Particulars: for reduction of SNCA gene expression: 24 hours exposure, sub-cytotoxic concentrations. Format: cell-based, human. The protocol:
as §1, §2

Data set [7] concerns NDUFB1, ATP5C1, ATP50. In words: Real time RT-PCR of BMPS after toxicant exposure: mitochondrial function genes. Format: cell-based, human. Particulars: for Expression of genes related to mitochondrial function (NDUFB1, ATP5C1, ATP50): 24 hours exposure, 5 μM rotenone, 1000 μM MPP+; for Mitochondrial function genes (NDUFB1, ATP5C1, ATP50), MPP+ versus rotenone: BMPS treated with MPP+ or rotenone. The method, then: as §1, §2

Data set [8] has as its system Caspase-1 (CASP1). In words: Real time RT-PCR of BMPS after toxicant exposure: Caspase-1. Format: cell-based, human. The protocol: as §1
as §2, with “Data were presented as mean±SD, normalized to housekeeping genes and week 0.” left out

The test system of data set [9] is KEAP1. In words: Real time RT-PCR of BMPS after toxicant exposure: KEAP1. Format: cell-based, human. Particulars: 24 h exposure to 1 mM MPP+. An excerpt:
In one embodiment, the model described herein is useful for studying Parkinson's disease (PD). Traditionally, PD has been described as a pre-synaptic degenerative process that affects dopaminergic neurons and induces a fundamental motor disorder, however, non-motor symptoms can also be present. Research in Parkinson's disease is experiencing an upswing at the moment, owing to a lack of curative drugs for the large number of patients. […] These model toxins are mainly used in mice and primates (and less in cell cultures) to model a disease state resembling PD. Human neurons, which would be most relevant, are not usually available and existing cell lines are only very poor substitutes. […]
(§3) Total RNA was extracted from aggregates every week up to 8 weeks of differentiation using Tripure (Roche, Switzerland) according to Chomczynski and Sacchi (1987). […] RNA quantity and purity was determined using NanoDrop 2000c (Thermo Scientific). […]
(§4) The expression of genes was evaluated using specific Taqman® gene expression assays (Life Technologies). miRNA expression was analyzed using TaqMAn microRNA expression assay in combination with TaqMan miRNA Reverse Transcription kit using protocol described in [77]. […] Fold changes were calculated using the 2(−ΔΔCt) method. β-actin and 18s were used as a housekeeping genes for mRNA and RNU44 for miRNA. […]

Data set [10] concerns PD-related genes (TH, TBR1, SNCA, KEAP1, NDUFB1, ATP5C1, ATP50 and CASP1). In words: Real time RT-PCR of BMPS after toxicant exposure: PD-related gene panel. Format: cell-based, human. Particulars: 5 μM rotenone, 1 mM MPP+.
Source text: Induced pluripotent stem cells (iPSC)-derived human-relevant microphysiological systems (MPS) better mimic the organ level, but are too complex for chemical and drug screening. As described herein, a reproducible 3D brain MPS (BMPS) that differentiates into mature neurons and glial cells (astrocytes and oligodendrocytes), which reproduces the topology of neuronal-glial interactions and connectivity in the central nervous system was developed. […]
as §3, §4

Data set [11] relates to Down's syndrome model. In words: Down's syndrome BMPS exposed to compounds that induce oxidative stress, compared to healthy donor model. Particulars: Down's syndrome iPSC-derived model.
Source text: FIG. 5A depicts morphological characterization with immunostaining of neurons (MAP2, Syn1, TH, SYP), neural precursor cells (nestin) and glial cells (GFAP) at 8 weeks of differentiation.

In the case of `C[n+]1ccc(-c2ccccc2)cc1` [MPP+, 1-methyl-4-phenylpyridinium], in data set [1], the cytotoxic concentrations is 1000 µM. The “Disruption of dopaminergic neurons observed by immunohistochemistry” value in data set [2] (5 μM rotenone, 100 μM MPP+) is reported as “disrupted dopaminergic neurons”. Further, in data set [2] (5 μM rotenone, 1000 μM MPP+), the “Dopaminergic effects at concentrations selected for further studies” value was “induced clear and selective dopaminergic effects”. Further, in data set [2] (24 h, 1p M rotenone, 100 μM MPP+, BMPS differentiated 4 weeks), the “Selective disruption of dopaminergic neurons but not of any other cell types (immunohistochemistry)” value is “Selective disruption of dopaminergic neurons but not of any other cell types”. Besides, in data set [2] (1000 μM MPP+), the “Alterations in other neurofilament 200-positive neurons” value is recorded as “did not show any alterations in other neurofilament 200-positive neurons”. The “Degeneration of dopaminergic neurons” value in data set [2] (treatment of BMPS (FIGS. 4E and 4F)) is “induced specific degeneration of dopaminergic neurons”. Further, the “General cytotoxicity and effect on other neuronal types at higher concentrations” value in data set [2] is “led to general cytotoxicity and affected also other neuronal types stained positive for neurofilament 200”. Besides, in data set [3] (12 hours exposure), the ROS production entry is on record as “no statistically significant changes”. For the same molecule, the ROS production entry in data set [3] (24 hours exposure) is on record as “increase in ROS production”. Moreover, in data set [4], the “TH mRNA expression decreased by” value is 70%±9 and the “TH gene expression compared to controls” value was “decreased TH gene expression compared to controls”. Also, in data set [5], the “reduction of TBR1 gene expression” value is 76±22% and the TBR1 gene expression result was “down-regulated”. Also, the “reduction of SNCA gene expression” value in data set [6] was 41±40%. In addition, the “Statistical significance of change in SNCA expression” value in data set [6] (BMPS exposed to 1 mM MPP+) is “no statistically significant changes in SNCA expression”. In data set [7], the “Expression of genes related to mitochondrial function (NDUFB1, ATP5C1, ATP50)” value is recorded as “tended to decrease in expression but these changes were not statistically significant” and the “Mitochondrial function genes (NDUFB1, ATP5C1, ATP50), MPP+ versus rotenone” value is listed as “down-regulated, more strongly”. Besides, in data set [8] (24 h exposure to 1 NM MPP+), the “Caspase-1 (CASP1) expression” value is on record as “increased significantly”. Besides, in [8] (24 hours exposure to MPP+), the Caspase-1 gene expression result is “increased”. The “KEAP1 expression (oxidative stress marker)” value in data set [9] is given as “increase in KEAP1 expression”. Besides, the “Expression of PD-related genes” value in data set [10] is “altered expression of PD-related genes”.
As for `C[n+]1ccc(-c2cc[n+](C)cc2)cc1` [paraquat], the “Response of Down's syndrome model compared to model from healthy donors” value in data set [11] is given as “more sensitive to these compounds than the healthy model”.
On to `C=C(C)[C@H]1Cc2c(ccc3c2O[C@@H]2COc4cc(OC)c(OC)cc4[C@@H]2C3=O)O1` [rotenone], for which, in data set [1], the cytotoxic concentrations stood at 10 µM. Moreover, the “Alterations in other neurofilament 200-positive neurons” value in [2] (1000 μM MPP+) was “did not show any alterations in other neurofilament 200-positive neurons”. Besides, the “General cytotoxicity and effect on other neuronal types at higher concentrations” value in [2] is “led to general cytotoxicity and affected also other neuronal types stained positive for neurofilament 200”. In [3] (12 hours exposure), the ROS production entry is “no statistically significant changes”. In addition, the ROS production entry in data set [3] (24 hours exposure) was “increase in ROS production”. For the same molecule, in data set [4], the “TH mRNA expression decreased by” value was 84%±11 and the “TH gene expression compared to controls” value is given as “decreased TH gene expression compared to controls”. For the same molecule, in data set [5], the “reduction of TBR1 gene expression” value came to 70±13% and the TBR1 gene expression entry is on record as “down-regulated”. Moreover, the SNCA gene expression entry in [6] (5 μM rotenone, 1 mM MPP+) is listed as “Reduction of SNCA”. In [6], the “reduction of SNCA gene expression” value is on record as 72±6%. Moreover, in data set [7], the “Expression of genes related to mitochondrial function (NDUFB1, ATP5C1, ATP50)” value is “tended to decrease in expression but these changes were not statistically significant” and the “Mitochondrial function genes (NDUFB1, ATP5C1, ATP50), MPP+ versus rotenone” value is given as “down-regulated”. Further, the “Expression of PD-related genes” value in data set [10] is given as “altered expression of PD-related genes”.

Source of the values: patent US11654161B2, “Compositions and methods for neuralgenesis” (priority 2016, dated 2023).
